Measured values as given in US20160311788A1, “Antifouling Compounds And Use Thereof” (National University of Singapore, priority 2008, published 2016).
≈ marks a conversion by molar mass, not a printed value.

Tests used:
[1] = system: marine bacteria strain S17; experiment: disc inhibition assay, strain S17; type: cell-based, Gordonia terrae
Outline: (§1)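 50 μg compound/6 mm disc (from 2 mg/ml DMSO stock); DMSO blank disc control. Lawn swabbed on Marine Agar from marine broth culture. Overnight, 35° C, dark. Readout: inhibition zone diameter (calipers), mean of 2 replicates.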

[2] = system: Escherichia coli (Strain DH5a); experiment: disc inhibition assay, REF 2; type: cell-based
Method: (§2) 13 strains of marine bacteria were isolated from fouling communities located in the coastal waters around Singapore. These were characterized in earlier studies and reported in Teo et al. (U.S. patent application Ser. No. 11/265,833) and Choong et al (in prep). In addition, four reference bacterial strains were added tested: Escherichia coli (Strain K12, ATCC 15222), E. coli (strain DH5a), Pseudomonas aeruginosa (strain LMG 12228; ATCC 15692) and P. putida (strain KT2440; ATCC 47054). All the bacteria were also tested against five antibiotics: ampicillin (AMP), tetracycline (TETR), erythromycin (ERY), chloramphenicol (CHL) and streptomycin (STREP).
(§3) Disks comprising the compounds to be tested were prepared as follows. The antibacterial assay, the pure compounds were made up to a concentration of 2 mgml^−1 in DMSO. 25 μl of the stock was pipetted onto each 6 mm sterile disc (Macherey-Nagel #484000) to obtain 50 μg of compound per disc. Equivalent volume of DMSO was used inoculated for the control.
(§4) For all disk inhibition assays, bacterial cultures were grown in marine broth (Pronadisa #1217.00). Sterile swabs dipped into the cultures were used to inoculate Marine Agar plates with a bacterial lawn by smearing the culture over the surface. After inoculating the plates, discs with antibiotics, pharmaceuticals or control blanks were placed on each plate. Each concentration of antibiotic or pharmaceutical was tested with two replicates. After the disks were placed on the agar surface, plates were incubated overnight in the dark at 35° C. After incubation, plates were examined for zones of inhibition or clearing around control and treated disks. The diameter of any zone of clearing or inhibition was measured using Vernier calipers. There were two replicates per treatment, and the average was taken. There was no zone of inhibition around the control blanks in all the assays.

[3] = system: marine bacteria strain S10; experiment: disc inhibition assay, strain S10; type: cell-based, Halobacillus trueperi; details: Halobacillus trueperi, S10, 24 h
Outline: as §1

[4] = system: Escherichia coli (Strain K12; ATCC 15222); experiment: disc inhibition assay, REF 1; type: cell-based
Method: as §2, §3, §4

[5] = system: marine bacteria strain S9; experiment: disc inhibition assay, strain S9; type: cell-based, Bacillus algicola; details: Guptibacillus algicola, S9, 24 h
Outline: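 Marine broth cultures are swabbed over Marine Agar to form a lawn. Discs holding 50 μg compound, or DMSO alone, are placed on the surface. Plates are kept overnight at 35° C without light. Inhibition zone widths are then measured and the two replicates averaged.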

[6] = system: marine bacteria strain S4; experiment: disc inhibition assay, strain S4; type: cell-based, Bacillus algicola; details: Guptibacillus algicola, S4, 24 h
Outline: as §1

[7] = system: marine bacteria strain S3; experiment: disc inhibition assay, strain S3; type: cell-based, Erythrobacter aquimaris
Outline: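 Disc inhibition assay against a marine bacterial strain isolated from fouling communities in Singapore coastal waters. The strain was grown in marine broth and swabbed over Marine Agar plates as a lawn. 6 mm sterile discs loaded with compound in DMSO, or DMSO controls, were placed on the plates and incubated overnight in the dark at 35° C.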

[8] = system: marine bacteria strain S1; experiment: disc inhibition assay, strain S1; type: cell-based, Rhodovulum iodosum
Outline: as §1

[9] = system: Pseudomonas putida (Strain KT2440; BCRC 10459); experiment: disc inhibition assay, REF 4; type: cell-based
Method: as §2, §3, §4

[10] = system: marine bacteria strain S30; experiment: disc inhibition assay, strain S30; type: cell-based, Bacillus borophilicus; details: Bacillus, S30, 24 h
Outline: as §1

[11] = system: marine bacteria strain S14; experiment: disc inhibition assay, strain S14; type: cell-based, Vibrio probioticus
[12] = system: marine bacteria strain S28; experiment: disc inhibition assay, strain S28; type: cell-based, Arthrobacter protophormial; details: Arthrobacter, S28, 24 h
Outline: as §1

[13] = system: marine bacteria strain S29; experiment: disc inhibition assay, strain S29; type: cell-based, Bacillus hwajinpoensis; details: Guptibacillus hwajinpoensis, S29, 24 h
Outline: as §1

[14] = system: marine bacteria strain S16; experiment: disc inhibition assay, strain S16; type: cell-based, Pseudoalteromonas piscicida
Outline: as §1

[15] = system: Pseudomonas aeruginosa (strain LMG 12228; ATCC 15692); experiment: disc inhibition assay, REF 3; type: cell-based
Method: as §2, §3, §4

[16] = system: marine bacteria strain S27; experiment: disc inhibition assay, strain S27; type: cell-based, Tenacibaculum lutimaris; details: Tenacibaculum lutimaris, S27, 24 h
Outline: as §1

[17] = system: marine bacteria strain S18; experiment: disc inhibition assay, strain S18; type: cell-based, Microbacterium esteraromaticum; details: Microbacterium esteraromaticum, S18, 24 h
[18] = system: cyprids of Balanus amphitrite; experiment: barnacle settlement assay; type: in vivo; details: Amphibalanus amphitrite, 24 h, read-out: ED50, Table 3(a); concentration that caused 50% settlement inhibition, 24 hours, cyprids
Outline: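 Cyprids reared on Tetraselmis/Chaetoceros at 25° C. and aged at 4° C. for 2-3 days; 20-40 per glass vial exposed in triplicate to compound serially diluted in filtered seawater from DMSO stock, with DMSO and seawater controls. Settled, metamorphosed larvae counted after 24 hours; ED50 (50% settlement inhibition) from probit analysis or graphed data.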

[19] = system: Stage II nauplii of Balanus amphitrite; experiment: barnacle toxicity assay; type: in vivo; details: Table 3(a); concentration that caused 50% mortality, 22 to 24 hours, Stage II nauplii
Method: Pure compounds were suspended in DMSO and sonicated to obtain a stock solution of 50 mg ml^−1 in DMSO. This stock solution is stored at −20° C. in 4 ml amber screw cap vials. For the bioassays, a small volume of stock solution was added to 1 μm filtered seawater in a glass scintillation vial. This suspension was then sonicated around 10 minutes. Serial dilutions were generated to the required range of concentrations. Serial dilution of the equivalent amounts of DMSO in seawater was used as the control.
The barnacle bioassay method used follows from the method first introduced by Rittschof et al. (1992), and subsequently by other authors (Willemsen et al., 1998). This method is now standard practice for many antifouling screening of novel compounds.
Toxicity assays were modified from Rittschof et al. (1992). Stage II naupliar larvae used in tests were obtained from Balanus amphitrite adults collected from inter-tidal rock walls at Kranji mangrove, Singapore. Larvae were collected from a container of adults by attraction to a point source of light and transferred to 500 ml of fresh seawater. Next, larvae were re-concentrated with a fiber optic light and added to assays.
Duplicate assays were conducted in 2 ml glass vials (La Pha Pack® PN 11-14-0544) in 1 ml of filtered seawater for 22 to 24 hours. The assays were repeated for confirmation. There were two sets of controls, a blank control consisting of 3 tubes of seawater only, and DMSO control consisting of the equivalent dilution series with DMSO without compound). For the compounds, there were 3 tubes of each for each test concentration. The assay was initiated by addition of barnacle naupliar in 50 μl of seawater. After 22 to 24 hours of incubation at 25-27° C. solutions containing test animals were transferred to a Bogorov tray and scored as living or dead. Moribund larvae were scored as dead. Results were confirmed by repeating the assay. Data were combined and the concentration that caused 50% mortality (LD50) was calculated by probit analysis using a basic computer program (Libermann, 1983). If data were not appropriate for probit analysis, the LD50 was estimated from graphed data.

SMILES: CC1(C)S[C@@H]2[C@H](NC(=O)[C@H](N)c3ccccc3)C(=O)N2[C@H]1C(=O)O [AMP, Ampicillin, reference compound]
- zone of inhibition ([1]; strain 17, 2 ug): −
- zone of inhibition ([1]; strain 17, 10 ug): −
- zone of inhibition ([2]; REF 2, 2 ug): −
- zone of inhibition ([2]; REF 2, 10 ug): + (2-5 mm zone of inhibition around each disk was observed.)
- zone of inhibition at 2 µg/disc ([3]; strain 10, 2 ug): > 10 mm
- zone of inhibition at 10 µg/disc ([3]; strain 10, 10 ug): > 10 mm
- zone of inhibition ([4]; REF 1, 2 ug): −
- zone of inhibition ([4]; REF 1, 10 ug): + (2-5 mm zone of inhibition around each disk was observed.)
- zone of inhibition at 2 µg/disc ([5]; strain 9, 2 ug): 2 to 5 mm
- zone of inhibition at 10 µg/disc ([5]; strain 9, 10 ug): > 10 mm
- zone of inhibition at 2 µg/disc ([6]; strain 4, 2 ug): > 10 mm
- zone of inhibition at 10 µg/disc ([6]; strain 4, 10 ug): > 10 mm
- zone of inhibition ([7]; strain 3, 2 ug): −
- zone of inhibition ([7]; strain 3, 10 ug): −
- zone of inhibition at 2 µg/disc ([8]; Rhodovulum iodosum, S1, strain 1, 2 ug): 5 to 10 mm
- zone of inhibition at 10 µg/disc ([8]; Rhodovulum iodosum, S1, strain 1, 10 ug): 5 to 10 mm
- zone of inhibition ([9]; REF 4, 2 ug): −
- zone of inhibition ([9]; REF 4, 10 ug): + (2-5 mm zone of inhibition around each disk was observed.)
- zone of inhibition at 2 µg/disc ([10]; strain 30, 2 ug): > 10 mm
- zone of inhibition at 10 µg/disc ([10]; strain 30, 10 ug): > 10 mm
- zone of inhibition at 2 µg/disc ([11]; Vibrio, S14, 24 h): 2 to 5 mm
- zone of inhibition at 10 µg/disc ([11]; Vibrio, S14, 24 h): 2 to 5 mm
- zone of inhibition at 2 µg/disc ([12]; strain 28, 2 ug): 2 to 5 mm
- zone of inhibition at 10 µg/disc ([12]; strain 28, 10 ug): 5 to 10 mm
- zone of inhibition at 2 µg/disc ([13]; strain 29, 2 ug): > 10 mm
- zone of inhibition at 10 µg/disc ([13]; strain 29, 10 ug): > 10 mm
- zone of inhibition at 2 µg/disc ([14]; Pseudoalteromonas piscicida, S16, 24 h, strain 16, 2 ug): 2 to 5 mm
- zone of inhibition at 10 µg/disc ([14]; Pseudoalteromonas piscicida, S16, 24 h, strain 16, 10 ug): 2 to 5 mm
- zone of inhibition ([15]; REF 3, 2 ug): −
- zone of inhibition ([15]; REF 3, 10 ug): −
- zone of inhibition at 2 µg/disc ([16]; strain 27, 2 ug): 5 to 10 mm
- zone of inhibition at 10 µg/disc ([16]; strain 27, 10 ug): > 10 mm
- zone of inhibition at 2 µg/disc ([17]; strain 18, 2 ug): 2 to 5 mm
- zone of inhibition at 10 µg/disc ([17]; strain 18, 10 ug): 5 to 10 mm

SMILES: CN(C)C(=O)C(CCN1CCC(O)(c2ccc(Cl)cc2)CC1)(c1ccccc1)c1ccccc1 [LOP, loperamide, reference compound]
- zone of inhibition at 50 µg/disc ([1]; Gordonia terrae, S17, 24 h): 5 to 10 mm
- zone of inhibition at 50 µg/disc [3]: 5 to 10 mm
- zone of inhibition at 50 µg/disc [5]: 5 to 10 mm
- zone of inhibition at 50 µg/disc [6]: 5 to 10 mm
- zone of inhibition at 50 µg/disc ([7]; Qipengyuania aquimaris, S3, 24 h): > 10 mm
- zone of inhibition ([8]; strain 1, 50 μg of compound per disc): −
- IC50 [18]: 0.37 µg/mL (≈ 0.776 µM)
- zone of inhibition at 50 µg/disc [10]: 2 to 5 mm
- zone of inhibition ([11]; strain 14, 50 μg of compound per disc): −
- zone of inhibition at 50 µg/disc [12]: 5 to 10 mm
- zone of inhibition at 50 µg/disc [13]: 5 to 10 mm
- zone of inhibition ([14]; strain 16, 50 μg of compound per disc): −
- zone of inhibition at 50 µg/disc [16]: 5 to 10 mm
- zone of inhibition at 50 µg/disc [17]: > 10 mm
- LD50 [19]: 1.56 µg/mL
